{"source": "patent US6060516A", "about": "“N^1 -propargylhydrazines, N^2 -propargylhydrazines and their analogs for the treatment of depression, anxiety and neurodegeneration” (CV Technologies, Inc., priority 1998, dated 2000)", "key": {"[1]": {"tested_on": "DSP-4 induced noradrenaline depletion in mouse hippocampus", "test": "Prevention of DSP-4 induced noradrenaline depletion in mouse hippocampus", "assay_type": "in vivo", "conditions": "for protection against DSP-4 induced noradrenaline depletion / neuroprotective effect: 10 mg/kg, mouse hippocampus, in words", "procedure": "(§1) Neuroprotectant activity was evaluated by examining the prevention of DSP-4 induced noradrenaline depletion in mouse hippocampus as described in Yu, P. H., Davis, B. A., Fang, J. and Boulton, A. A. (1994), Neuroprotective effect of some monoamine oxidase-B inhibitors against DSP-4 induced noradrenaline depletion in the mouse hippocampus, J. Neurochem. 63: 1820-1828. Briefly, mice were injected (i.p.) with either 20% DMSO or potential neuroprotectants (10 mg/kg in 20% DMSO). One hour later they were injected with either water or DSP-4 (50 mg/kg in water). One week later the mice were killed and the brains removed and the hippocampus dissected out. The hippocampus was frozen and saved for estimation of noradrenaline and other aminergic neurotransmitters and their metabolites as in Sloley, B. D. and Goldberg J. I. (1991), Determination of γ-glutamyl conjugates of monoamines by means of high-performance liquid chromatography with electrochemical detection and application to gastropod tissues, J. Chromatog. 567: 49-56. The rest of the brain was frozen and retained for estimation of monoamine oxidase activities ex vivo as described earlier."}, "MAO-A": {"tested_on": "MAO-A", "test": "MAO-A inhibition ex vivo in DSP-4 treated mice (brain)", "parameters": "species or system mouse", "procedure": "The compounds were evaluated for ex vivo monoamine oxidase-A inhibiting activity using the radiochemical procedure of Lyles, G. A. and Callingham, B. A. (1982). […] Biochem. Pharmacol. 31: 1417-1424. Radiolabelled 5-hydroxytryptamine was used as a substrate for monoamine oxidase-A. The compounds of interest were either injected intraperitonealy in DMSO or administered by gavage in water for various periods. The animals were killed by decapitation and the brains and livers immediately removed and frozen until assayed for monoamine oxidase-A activity. Tissues were homogenized and appropriately diluted in buffer prior to incubation. Incubations proceeded at 37° C. for 10 minutes. Incubation was terminated by the addition of acid and the radiolabelled product (5-hydroxyindoleacetaldehyde and 5-hydroxyindoleacetic acid) was extracted and quantified by liquid scintillation counting procedures. Incubations were done in triplicate and incubations containing phenelzine were included for comparison. The percent inhibition of monoamine oxidase-A activity compared to controls containing no drug was calculated.\nas §1"}, "MAO-B": {"tested_on": "MAO-B", "test": "MAO-B inhibition ex vivo in DSP-4 treated mice (brain)", "parameters": "species or system mouse", "procedure": "Biochem. Pharmacol. 31: 1417-1424. Radiolabelled β-phenylethylamine was employed as a substrate for monoamine oxidase-B. The compounds of interest were either injected intraperitoneally in DMSO or administered by gavage in water for various periods. The animals were killed by decapitation and the brains and livers immediately removed and frozen until assayed for monoamine oxidase-B activity. Tissues were homogenized and appropriately diluted in buffer prior to incubation. Incubations proceeded at 37° C. for 10 minutes. Incubation was terminated by the addition of acid and the radiolabelled product (phenylacetic acid) was extracted and quantified by liquid scintillation counting procedures. Incubations were done in triplicate and incubations containing phenelzine were included for comparison. The percent inhibition of monoamine oxidase-B activity compared to controls containing no drug was calculated.\nNeuroprotectant activity was evaluated by examining the prevention of DSP-4 induced noradrenaline depletion in mouse hippocampus as described in Yu, P. H., Davis, B. A., Fang, J. and Boulton, A. A. (1994), Neuroprotective effect of some monoamine oxidase-B inhibitors against DSP-4 induced noradrenaline depletion in the mouse hippocampus, J. Neurochem. 63: 1820-1828. Briefly, mice were injected (i.p.) with either 20% DMSO or potential neuroprotectants (10 mg/kg in 20% DMSO). […]"}, "PC12 cells": {"tested_on": "PC12 cells", "test": "PC12 neurite outgrowth (neurotrophic effect)", "assay_type": "cell-based", "conditions": "for Index of Neurite Outgrowth: seven days", "procedure": "The effects of CVT-P040 on neurite outgrowth in cell culture were investigated using an established PC 12 pheochromocytoma cell culture. The effects of CVT-P040 and nerve growth factor on neurite outgrowth were estimated using the method described by Rydel, R. E and Greene, L. A.(1987), Acidic and basic fibroblast growth factors promote stable neurite outgrowth and basic neuronal differentiation in cultures of PC12 cells, J. Neuroscience 7: 3639-3653. Briefly, PC12 cells were seeded and maintained in 100 cm^2 tissue culture dishes at 37° C. in RPMI1640 media containing 1% antibiotics, 10% heat inactivated horse serum and 5% fetal bovine serum in a water saturated atmosphere of 95% air and 5% CO2. The cells were mechanically dislodged and plated into 35 mm collagen-coated tissue culture dishes containing a total of 2.0 ml complete medium at a density of […]. The medium was changed 3 times/week. Cellular responses to CVT-P040 and nerve growth factor (NGF) were determined by counting the number of PC12 cells containing processes. Photographs of the cells were taken after seven days treatment. Two cell fields were chosen in each dish and the photographs developed and printed. […] The neurite index was calculated using the following formula; Neurite Index=total neurite score (ΣS)/ total cell number (ΣN); ΣS=S1×N+S2×N +S3×N+S4×N, where N is the number of cells in each cell field."}, "[2]": {"tested_on": "DSP-4 induced noradrenaline depletion in mouse hippocampus", "test": "Prevention of DSP-4 induced noradrenaline depletion in mouse hippocampus", "assay_type": "in vivo", "conditions": "10 mg/kg then DSP-4 50 mg/kg; saline control experiment"}, "[3]": {"conditions": "10 mg/kg i.p. then DSP-4 50 mg/kg, 20% DMSO control experiment"}, "[4]": {"conditions": "10 mg/kg then DSP-4 50 mg/kg, saline control experiment"}}}
{"smiles": "C#CCN(N)CCc1ccccc1", "note": "[CVT-P040, N^1 -propargylphenelzine]", "values": [{"measurement": "% NA Restoration", "setting": "[1]; [3]", "result": 55.4, "unit": "%"}, {"measurement": "NA", "setting": "[1]; [3]", "result": "235 ± 26", "unit": "ng/g"}, {"measurement": "protection against DSP-4 induced noradrenaline depletion / neuroprotective effect", "setting": "[1]", "result": "significantly protected against DSP-4 induced noradrenaline depletion"}, {"measurement": "MAO-A % Inhibition", "setting": "MAO-A; [3]", "result": "57.9 ± 2.9", "unit": "%"}, {"measurement": "preference for MAO-A inhibition", "setting": "MAO-A; DSP-4 experiment, 10 mg/kg, in words", "result": "strong preference for MAO-A inhibition"}, {"measurement": "MAO-B % Inhibition", "setting": "MAO-B; [3]", "result": 20.3, "unit": "%"}, {"measurement": "neurite index on coadministration with NGF", "setting": "PC12 cells; CVT-P040 100 μM with 0.3 or 1.0 ng/ml NGF, against NGF alone, in words", "result": "increased the neurite index above those cultures receiving 0.3 or 1.0 ng/ml NGF alone"}, {"measurement": "Index of Neurite Outgrowth", "setting": "PC12 cells; CVT-P040 100 μM with NGF 0.1 ng/ml", "result": "0.55 ± 0.03"}, {"measurement": "Index of Neurite Outgrowth", "setting": "PC12 cells; CVT-P040 100 μM with NGF 0.3 ng/ml", "result": "0.97 ± 0.06"}, {"measurement": "Index of Neurite Outgrowth", "setting": "PC12 cells; CVT-P040 100 μM with NGF 1.0 ng/ml", "result": "1.53 ± 0.07"}, {"measurement": "neurite outgrowth in PC12 cells", "setting": "PC12 cells; CVT-P040 100 μM, in words", "result": "increased neurite outgrowth in PC12 cells"}, {"measurement": "Index of Neurite Outgrowth", "setting": "PC12 cells; CVT-P040 100 μM", "result": "0.35 ± 0.03"}]}
{"smiles": "C#CCN(CCc1ccccc1)NC(C)=O", "note": "[CVT-P041, N^1 -propargyl-N^2 -acetylphenelzine]", "values": [{"measurement": "protection against DSP-4 induced noradrenaline depletion / neuroprotective effect", "setting": "[1]", "result": "did not exhibit a neuroprotective effect"}, {"measurement": "MAO-A % Inhibition", "setting": "MAO-A; [4]", "result": "4.3 ± 6.2", "unit": "%"}, {"measurement": "MAO-B % Inhibition", "setting": "MAO-B; [4]", "result": -3.7, "unit": "%"}, {"measurement": "% NA Restoration", "setting": "[2]", "result": -43.2, "unit": "%"}, {"measurement": "NA", "setting": "[2]", "result": "168 ± 31", "unit": "ng/g"}]}
